The source of these data is BindingDB's records for doi:10.1111/cbdd.12330 (Institute of Experimental Botany Ascr and Palacky University, 2014).

Holding throughout (assay): Kinase Selectivity
Experiment [1] addresses Cyclin-dependent kinase 1 (Homo sapiens, UniProt P06493). The method, then: (§1) Cyclin-dependent kinase selectivity was evaluated using CDK1-cyclin B, CDK2-cyclin E, CDK4-cyclin D1, CDK7-cyclin H, and CDK9-cyclin T1.
In experiment [2] the target is Cyclin-dependent kinase 2 (Homo sapiens, UniProt P24941). The method, then: as §1
Experiment [3] addresses Cyclin-dependent kinase 4 (Homo sapiens, UniProt P11802). How it is done: as §1
Experiment [4] addresses Cyclin-dependent kinase 7 (Homo sapiens, UniProt P50613). The method, then:
as §1

The target of experiment [5] is Cyclin-dependent kinase 9 (Homo sapiens, UniProt P50750). The method, then:
as §1

Sequence of Cyclin-dependent kinase 9 (P50750 whole entry): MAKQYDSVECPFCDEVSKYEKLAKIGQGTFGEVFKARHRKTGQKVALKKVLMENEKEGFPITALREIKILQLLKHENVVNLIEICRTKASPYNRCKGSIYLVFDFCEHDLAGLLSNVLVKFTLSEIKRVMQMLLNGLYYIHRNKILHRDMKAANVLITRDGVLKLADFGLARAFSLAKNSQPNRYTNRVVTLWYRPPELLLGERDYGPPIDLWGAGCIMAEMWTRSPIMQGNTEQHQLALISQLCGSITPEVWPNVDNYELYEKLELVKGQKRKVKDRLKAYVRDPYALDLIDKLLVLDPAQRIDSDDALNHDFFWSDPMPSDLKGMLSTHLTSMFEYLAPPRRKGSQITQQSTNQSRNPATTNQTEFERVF
Sequence of Cyclin-dependent kinase 1 (P06493 whole entry): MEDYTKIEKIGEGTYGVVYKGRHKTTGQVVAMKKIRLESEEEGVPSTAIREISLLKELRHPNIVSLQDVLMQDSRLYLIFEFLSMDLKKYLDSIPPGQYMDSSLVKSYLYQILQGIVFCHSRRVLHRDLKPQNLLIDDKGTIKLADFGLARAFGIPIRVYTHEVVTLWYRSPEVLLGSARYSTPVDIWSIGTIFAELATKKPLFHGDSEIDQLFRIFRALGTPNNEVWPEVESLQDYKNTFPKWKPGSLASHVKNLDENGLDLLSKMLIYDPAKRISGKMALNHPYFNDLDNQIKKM
Sequence of Cyclin-dependent kinase 7 (P50613 whole entry): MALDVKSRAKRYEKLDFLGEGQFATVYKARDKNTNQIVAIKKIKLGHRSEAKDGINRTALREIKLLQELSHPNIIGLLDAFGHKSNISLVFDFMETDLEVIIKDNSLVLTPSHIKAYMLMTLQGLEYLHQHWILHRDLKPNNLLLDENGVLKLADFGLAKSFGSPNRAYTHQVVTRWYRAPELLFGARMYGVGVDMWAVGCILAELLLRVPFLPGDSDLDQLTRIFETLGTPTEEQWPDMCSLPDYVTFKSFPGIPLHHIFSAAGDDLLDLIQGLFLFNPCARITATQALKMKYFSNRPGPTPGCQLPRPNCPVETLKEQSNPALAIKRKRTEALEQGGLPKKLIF
Sequence of Cyclin-dependent kinase 4 (P11802 whole entry): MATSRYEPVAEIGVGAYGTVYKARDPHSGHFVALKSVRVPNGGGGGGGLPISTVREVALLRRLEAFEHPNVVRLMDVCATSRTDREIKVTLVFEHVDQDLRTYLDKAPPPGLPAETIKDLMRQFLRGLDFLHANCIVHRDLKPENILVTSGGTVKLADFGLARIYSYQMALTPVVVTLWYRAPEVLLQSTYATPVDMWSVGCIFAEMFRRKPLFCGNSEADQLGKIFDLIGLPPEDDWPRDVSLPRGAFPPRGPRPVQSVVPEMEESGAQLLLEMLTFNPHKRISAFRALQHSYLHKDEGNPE

As to `Nc1n[nH]c(N)c1/N=N/c1ccncc1` [AAP1742], the IC50 in experiment [1] was 1330 nM; in experiment [2], 549 nM; in experiment [3], 454 nM; in experiment [4], 14.9 µM; in experiment [5] it was 280 nM.

One may read the IC50 as the concentration that inhibits the measured activity by half. A low value points to inhibition by little substance.
